The text below walks through data of patent US20180098969A1, “HODGKIN LYMPHOMA THERAPY” (Purdue Pharmaceutical Products L.P., priority 2016, published 2018).

The subject of assay [1] is non-resistant L1236 Hodgkin lymphoma cell lines. The experiment in a line: Viable cell count and IC50, non-resistant lines. The assay is classed as cell-based, human. Conditions: FIG. 6B. How it is done:
(b) The bendamustine-resistant Hodgkin lymphoma cell line L1236-R100, non-resistant L1236 Hodgkin lymphoma cell line cultured in DMSO L1236/DMSO and L1236 was cultured in the presence of EDO-S101 dissolved in DMSO at concentrations of 0.78 μM, 1.56 μM, 3.12 μM, 6.25 μM and 12.5 μM. Control cells were cultured in the same final concentration of DMSO. The number of viable cells was assessed at 24, 48 and 72 hours through a Countess™ automated cell counter (Invitrogen), each experiment being repeated three times and the results given being the mean of the three results ±SD.

Assay [2] concerns relapsed-refractory Hodgkin lymphoma. The note with it: in vivo; cited from earlier work.

In the case of `Cn1c(CCCC(=O)O)nc2cc(N(CCCl)CCCl)ccc21` [bendamustine], the IC50 entry in assay [1] is reported as “high IC50 values”. For the same molecule, the “relapsed/refractory Hodgkin lymphoma patients resistant” value in assay [2] is recorded as “about 40%”.
